The structures appear in SMILES notation.

T1 sequence (Q93009 208-1102): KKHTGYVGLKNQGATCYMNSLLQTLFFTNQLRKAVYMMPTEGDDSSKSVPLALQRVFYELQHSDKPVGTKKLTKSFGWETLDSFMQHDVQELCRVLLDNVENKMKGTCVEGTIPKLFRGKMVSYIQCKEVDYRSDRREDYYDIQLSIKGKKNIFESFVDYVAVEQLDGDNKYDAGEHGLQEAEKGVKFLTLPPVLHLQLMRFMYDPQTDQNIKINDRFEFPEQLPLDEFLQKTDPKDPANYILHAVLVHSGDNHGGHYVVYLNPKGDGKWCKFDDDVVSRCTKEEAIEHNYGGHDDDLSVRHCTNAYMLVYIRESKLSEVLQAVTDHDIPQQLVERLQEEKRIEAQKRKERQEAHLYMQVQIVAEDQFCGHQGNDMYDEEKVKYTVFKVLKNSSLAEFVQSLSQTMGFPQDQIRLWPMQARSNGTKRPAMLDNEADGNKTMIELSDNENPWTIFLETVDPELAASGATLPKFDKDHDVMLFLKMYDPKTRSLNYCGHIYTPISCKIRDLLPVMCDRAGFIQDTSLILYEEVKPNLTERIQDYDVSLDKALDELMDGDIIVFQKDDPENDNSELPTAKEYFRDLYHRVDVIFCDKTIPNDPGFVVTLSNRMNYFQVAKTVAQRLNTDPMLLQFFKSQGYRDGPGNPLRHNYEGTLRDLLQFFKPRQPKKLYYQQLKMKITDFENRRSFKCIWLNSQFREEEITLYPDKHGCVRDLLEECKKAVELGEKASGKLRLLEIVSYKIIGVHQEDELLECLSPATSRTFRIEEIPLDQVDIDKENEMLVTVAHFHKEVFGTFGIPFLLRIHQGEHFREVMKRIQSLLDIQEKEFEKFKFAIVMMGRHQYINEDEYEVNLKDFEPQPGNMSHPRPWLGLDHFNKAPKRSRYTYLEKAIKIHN

The assay addresses T1, USP7 (Homo sapiens, UniProt Q93009).
T1 construct: USP7, construct USP7 (208-1102) 6*His, Viva Biotech; initiator Met (N); TEV site (C); 6*His (C); purchased Viva Biotech
Briefly: USP7 Assay A and B (Ubiquitin-Rhodamine 110 assay). To be noted: Ub-Rh110 substrate 25 nM, read-out: USP7_IC50. In kind it is biochemical. The method, then: Each assay was performed in a final volume of 15 μL in assay buffer containing 20 mM Tris-HCl (pH 8.0, (1M Tris-HCl, pH 8.0 solution; Corning 46-031-CM)), 1 mM GSH (L-Glutathione reduced; Sigma #G4251), 0.03% BGG (0.22 μM filtered, Sigma, #G7516-25G), and 0.01% Triton X-100 (Sigma, #T9284-10L). Nanoliter quantities of either an 8-point or 10-point, 3-fold serial dilution in DMSO was pre-dispensed into assay plates (Perkin Elmer, ProxiPlate-384 F Plus, #6008269) for a final test concentration range of either 25 μM to 11 nM or 25 μM to 1.3 nM, respectively. The final concentration of the enzyme (USP7, construct USP7 (208-1102) 6*His, Viva Biotech) in the assay was 62.5 pM. Final substrate (Ub-Rh110; Ubiquitin-Rhodamine 110, R&D Systems #U-555) concentration was 25 nM with [Ub-Rh110]<<Km. 5 μL of 2× enzyme was added to the assay plates (pre-stamped with compound) and preincubated with USP7 for 30 min. 5 μL of 2×Ub-Rh110 was then added to assay plates. Plates were incubated stacked for 20 min at room temperature before 5 μL of stop solution (final concentration of 10 mM citric acid in assay buffer (Sigma, #251275-500G)). Fluorescence was read on the Envision (Excitation at 485 nm and Emission at 535 nm; Perkin Elmer) or on the PheraSTAR (Excitation at 485 nm and Emission at 535 nm; BMG Labtech).
Each assay was performed in a final volume of 20 μL in assay buffer containing 20 mM Tris-HCl (pH 8.0, (1M Tris-HCl, pH 8.0 solution; Corning 46-031-CM)), 2 mM CaCl2 (1M calcium chloride solution; Sigma #21114), 1 mM GSH (L-Glutathione reduced; Sigma #G4251), 0.01% Prionex (0.22 μM filtered, Sigma #G-0411), and 0.01% Triton X-100. Stock compound solutions were stored at −20° C. as 10 mM in DMSO. Up to 1 month prior to the assay, 2 mM test compounds were pre-dispensed into assay plates (Black, low volume; Corning #3820) and frozen at −20° C. Prestamped assay plates were allowed to warm to room temperature on the day of the assay. For the screen, 100 nL of 2 mM was pre-dispensed for a final screening concentration of 10 μM (DMSO(fc)=0.5%). For follow-up studies, 250 nL of an 8-point, 3-fold serial dilution in DMSO was pre-dispensed into assay plates for a final test concentration of 25 μM-11 nM (1.25c % DMSO final concentration). Unless otherwise indicated, all follow-up assays were run on triplecate plates. Enzyme (USP7, construct Met (208-1102)-TEV-6*His; Viva Q93009-1) concentration and incubation times were optimized for the maximal signal-to-background while maintaining initial velocity conditions at a fixed substrate concentration. The final concentration of the enzyme in the assay was either 75 pM or 250 pM. Final substrate (Ub-Rh110; Ubiquitin-Rhodamine 110, R&D Systems (biotechne)#U-555) concentration was 25 nM with [Ub-Rh110]<<Km. Compounds were either not preincubated or preincubated with USP7 between 30 to 120 min prior to the addition of 10 μL of 2×Ub-Rh110 to compound plates. Plates were incubated stacked for either 23 or 45 min at room temperature before fluorescence was read on the Envision (Excitation at 485 nm and Emission at 535 nm; Perkin Elmer) or on the PheraSTAR (Excitation at 485 nm and Emission at 535 nm; BMG Labtech).
Data from USP7 Assays A and B were reported as percent inhibition (inh) compared with control wells based on the following equation: % inh=1−((FLU−AveLow)/(AveHigh−AveLow)) where FLU=measured Fluorescence, AveLow=average Fluorescence of no enzyme control (n=16), and AveHigh=average Fluorescence of DMSO control (n=16). IC50 values were determined by curve fitting of the standard 4 parameter logistic fitting algorithm included in the Activity Base software package: IDBS XE Designer Model205. Data was fitted using the Levenburg Marquardt algorithm.
On to `C[C@H](CC(=O)N1CCC(O)(Cn2cnc3c(-c4ccccc4)nsc3c2=O)CC1)c1ccccc1` [Compound I-13, 6-({4-hydroxy-1-[(3R)-3-phenylbutanoyl]piperidin-4-yl}methyl)-3-phenyl-6H,7H-[1,2]thiazolo[4,5-d]pyrimidin-7-one], for which the IC50 was in the range of 1000 to 10000 nM.
In the case of `CC(CC(=O)N1CCC(O)(Cn2cnc3c(-c4ccccc4)nsc3c2=O)CC1)n1cccn1` (stereo not shown) [Compound I-14, 6-({4-hydroxy-1-[3-(1H-pyrazol-1-yl)butanoyl]piperidin-4-yl}methyl)-3-phenyl-6H,7H-[1,2]thiazolo[4,5-d]pyrimidin-7-one], the IC50 fell in the range of 1000 to 10000 nM.
The value for `C[C@@H](CC(=O)N1CCC(O)(Cn2cnc3c(-c4ccccc4)nsc3c2=O)CC1)n1cccn1` [Compound I-15, 6-({4-hydroxy-1-[(3 S)-3-(1H-pyrazol-1-yl)butanoyl]piperidin-4-yl}methyl)-3-phenyl-6H,7H-[1,2]thiazolo[4,5-d]pyrimidin-7-one] was 1000 to 10000 nM; that for `C[C@H](CC(=O)N1CCC(O)(Cn2cnc3c(-c4ccccc4)nsc3c2=O)CC1)n1cccn1` [Compound I-16, 6-({4-hydroxy-1-[(3R)-3-(1H-pyrazol-1-yl)butanoyl]piperidin-4-yl}methyl)-3-phenyl-6H,7H-[1,2]thiazolo[4,5-d]pyrimidin-7-one] was 1000 to 10000 nM; that for `O=C(CC(c1ccccc1)C(F)F)N1CCC(O)(Cn2cnc3c(-c4ccccc4)nsc3c2=O)CC1` (stereo not shown) [Compound I-17, 6-{[1-(4,4-difluoro-3-phenylbutanoyl)-4-hydroxypiperidin-4-yl]methyl}-3-phenyl-6H,7H-[1,2]thiazolo[4,5-d]pyrimidin-7-one] was 1000 to 10000 nM.
The value for `O=C(C[C@H](c1ccccc1)C(F)F)N1CCC(O)(Cn2cnc3c(-c4ccccc4)nsc3c2=O)CC1` [Compound I-18, 6-({1-[(3R)-4,4-difluoro-3-phenylbutanoyl]-4-hydroxypiperidin-4-yl}methyl)-3-phenyl-6H,7H-[1,2]thiazolo[4,5-d]pyrimidin-7-one] was over 10000 nM; that for `O=C(C[C@@H](c1ccccc1)C(F)F)N1CCC(O)(Cn2cnc3c(-c4ccccc4)nsc3c2=O)CC1` [Compound I-19, 6-({1-[(3 S)-4,4-difluoro-3-phenylbutanoyl]-4-hydroxypiperidin-4-yl}methyl)-3-phenyl-6H, 7H-[1,2]thiazolo[4,5-d]pyrimidin-7-one] was 500 to 1000 nM; that for `COc1ccc(C(=O)N2CCC(O)(Cn3cnc4c(-c5ccc(F)cc5)n[nH]c4c3=O)CC2)cc1` [Compound I-20, 3-(4-fluorophenyl)-6-{[4-hydroxy-1-(4-methoxybenzoyl)piperidin-4-yl]methyl}-1H, 6H,7H-pyrazolo[4,3-d]pyrimidin-7-one] was 1000 to 10000 nM.
For the molecule `COc1ccc(C(=O)N2CCC(O)(Cn3cnc4c(-c5ccc(OC)cc5)n[nH]c4c3=O)CC2)cc1` [Compound I-21, 6-{[4-hydroxy-1-(4-methoxybenzoyl)piperidin-4-yl]methyl}-3-(4-methoxyphenyl)-1H,6H,7H-pyrazolo[4,3-d]pyrimidin-7-one], the IC50 was 500 to 1000 nM.
The value for `CN(C)C(=O)N1CCC(O)(Cn2cnc3c(-c4ccc(F)c(N5CCNCC5)c4)nsc3c2=O)CC1` [Compound I-22, 4-({3-[4-fluoro-3-(piperazin-1-yl)phenyl]-7-oxo-6H,7H-[1,2]thiazolo[4,5-d]pyrimidin-6-yl}methyl)-4-hydroxy-N,N-dimethylpiperidine-1-carboxamide] was 1000 to 10000 nM; that for `O=C(c1ccc(F)cc1)N1CCC(O)(Cn2cnc3c(-c4ccc(CO)cc4)nsc3c2=O)CC1` [Compound I-23, 6-{[1-(4-fluorobenzoyl)-4-hydroxypiperidin-4-yl]methyl}-3-[4-(hydroxymethyl)phenyl]-6H,7H-[1,2]thiazolo[4,5-d]pyrimidin-7-one] was 1000 to 10000 nM.
On to `COc1ccc(C(=O)N2CCC(O)(Cn3cnc4c(-c5ccc(CO)cc5)nsc4c3=O)CC2)cc1` [Compound I-24, 6-{[4-hydroxy-1-(4-methoxybenzoyl)piperidin-4-yl]methyl}-3-[4-(hydroxymethyl)phenyl]-6H,7H-[1,2]thiazolo[4,5-d]pyrimidin-7-one], for which the IC50 was 1000 to 10000 nM.
The result for `O=C(CCC(F)(F)F)N1CCC(O)(Cn2cnc3c(-c4ccc(F)cc4)nsc3c2=O)CC1` [Compound I-25, 3-(4-fluorophenyl)-6-{[4-hydroxy-1-(4,4,4-trifluorobutanoyl)piperidin-4-yl]methyl}-6H,7H-[1,2]thiazolo[4,5-d]pyrimidin-7-one] reads over 10000 nM.
The value for `CN(C)C(=O)N1CCC(O)(Cn2cnc3c(-c4ccc(NCCN5CCCCC5)cc4)nsc3c2=O)CC1` [Compound I-26, 4-hydroxy-N,N-dimethyl-4-{[7-oxo-3-(4-{[2-(piperidin-1-yl)ethyl]amino}phenyl)-6H,7H-[1,2]thiazolo[4,5-d]pyrimidin-6-yl]methyl}piperidine-1-carboxamide] was 1000 to 10000 nM; that for `O=C1NCCN1CCOc1cccc(-c2nsc3c(=O)n(CC4(O)CCN(C(=O)C5CC5)CC4)cnc23)c1` [Compound I-27, 1-[2-(3-{6-[(1-cyclopropanecarbonyl-4-hydroxypiperidin-4-yl)methyl]-7-oxo-6H,7H-[1,2]thiazolo[4,5-d]pyrimidin-3-yl}phenoxy)ethyl]imidazolidin-2-one] was 1000 to 10000 nM.
Consider `C[C@H](CC(=O)N1CCC(O)(Cn2cnc3cc[nH]c3c2=O)CC1)c1ccccc1` [Compound I-28, 3-({4-hydroxy-1-[(3R)-3-phenylbutanoyl]piperidin-4-yl}methyl)-3H,4H,5H-pyrrolo[3,2-d]pyrimidin-4-one], for which the IC50 was under 500 nM.
With `O=C(c1ccccc1)N1CCC(O)(Cn2cnc3c(-c4ccccc4)n[nH]c3c2=O)CC1` [Compound I-29, 6-[(1-benzoyl-4-hydroxypiperidin-4-yl)methyl]-3-phenyl-1H,6H,7H-pyrazolo[4,3-d]pyrimidin-7-one], the IC50 lay in the range of 500 to 1000 nM.
The value for `O=C(c1ccc(F)cc1)N1CCC(O)(Cn2cnc3c(-c4ccc(F)cc4)nsc3c2=O)CC1` [Compound I-30, 6-{[1-(4-fluorobenzoyl)-4-hydroxypiperidin-4-yl]methyl}-3-(4-fluorophenyl)-6H,7H-[1,2]thiazolo[4,5-d]pyrimidin-7-one] was over 10000 nM; that for `COc1ccc(C(=O)N2CCC(O)(Cn3cnc4c(-c5ccc(OC)cc5)nsc4c3=O)CC2)cc1` [Compound I-31, 6-{[4-hydroxy-1-(4-methoxybenzoyl)piperidin-4-yl]methyl}-3-(4-methoxyphenyl)-6H,7H-[1,2]thiazolo[4,5-d]pyrimidin-7-one] was 1000 to 10000 nM.

Values taken from patent publication US10377773B2, “Isothiazolopyrimidinones, pyrazolopyrimidinones, and pyrrolopyrimidinones as ubiquitin-specific protease 7 inhibitors” (FORMA Therapeutics, Inc., priority 2015, dated 2019).
